Measurements: patent publication US20240150423A1, “GLP-1 ANALOGUE-MODIFIED DIMERS WITH DIFFERENT CONFIGURATIONS, PREPARATION METHOD THEREOF, AND APPLICATION THEREOF IN TREATMENT OF TYPE II DIABETES” (Nanjing Finepeptide Biopharmaceutical Co.,Ltd, priority 2019, published 2024)
Non-standard residues stand in square brackets, D forms with d. No end group written: not given here. Aib = CC(C)(N)C(=O)O

Each substance was assayed on Normal Kunming (KM) mice (assay: multiple OGTT (mOGTT): hypoglycemic duration after a single administration). Settings: monomeric peptides, single injection at the same dose (1.126 nmol), subcutaneous.
Type: in vivo
Procedure, shortened: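 Tail blood glucose was followed by meter in normal KM mice after one dosing and glucose gavage, at 0, 10, 20, 40, 60 and 120 min. Measurement stopped when the treated mean rose above the NaCl group twice; the period before that is the effective duration.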

Substance | Hypoglycemic [days] | Hypoglycemic (day)
His-Ala-Glu-Gly-Thr-Phe-Thr-Ser-Asp-Val-Ser-Cys-Tyr-Leu-Glu-Gly-Gln-Ala-Ala-Lys[N-ϵ-(N-α-oleoyl-L-γ-glutamyl)]-Glu-Phe-Ile-Ala-Trp-Leu-Val-Arg-Gly-Arg-Gly-OH (HAEGTFTSDVSCYLEGQAAXEFIAWLVRGRG; oleoyl-γ-glutamyl on Lys; C-terminal acid; Sequence is synthesized; (20)..(20) Xaa is 26Lys[N-e-(N-a-oleoyl-L-g-glutamyl)]; (31)..(31) C-terminal) [G3 series 21] | 4 | –
His-Ala-Glu-Gly-Thr-Phe-Thr-Ser-Asp-Val-Ser-Ser-Tyr-Leu-Glu-Gly-Gln-Ala-Ala-Lys[N-ϵ-(N-α-Palmitoyl-γ-glutamyl)]-Glu-Phe-Ile-Ala-Trp-Leu-Val-Arg-Gly-Arg-Gly-Cys-OH (HAEGTFTSDVSSYLEGQAAXEFIAWLVRGRGC; palmitoyl-γ-glutamyl on Lys; C-terminal acid; Sequence is synthesized; (20)..(20) Xaa is 26Lys[N-e-(N-a-Palmitoyl-g-glutamyl)]; (32)..(32) C-terminal) [G1] | – | No hypoglycemic
His-Ala-Glu-Gly-Thr-Phe-ThrCys-Asp-Val-Ser-Ser-Tyr-Leu-Glu-Gly-Gln-Ala-Ala-Lys[N-ϵ-(N-α-oleoyl-L-γ-glutamyl)]-Glu-Phe-Ile-Ala-Trp-Leu-Val-Arg-Gly-Arg-Gly-OH (HAEGTFTCDVSSYLEGQAAXEFIAWLVRGRG; oleoyl-gamma-Glu on Lys; C-terminal acid; Sequence is synthesized; (20)..(20) Xaa is 26Lys[N-e-(N-a-oleoyl-L-g-glutamyl)]; (31)..(31) C-terminal) [G8 series 58] | 1 | –
His-aAib-Glu-Gly-Thr-Phe-Thr-Cys-Asp-Val-Ser-Ser-Tyr-Leu-Glu-Gly-Gln-Ala-Ala-Lys-Glu-Phe-Ile-Ala-Trp-Leu-Val-Arg-aAib-Arg-NH2 (H[Aib]EGTFTCDVSSYLEGQAAKEFIAWLVR[Aib]R-NH2; N-terminus assumed; SMILES CC[C@H](C)[C@H](NC(=O)[C@H](Cc1ccccc1)NC(=O)[C@H](CCC(=O)O)NC(=O)[C@H](CCCCN)NC(=O)[C@H](C)NC(=O)[C@H](C)NC(=O)[C@H](CCC(N)=O)NC(=O)CNC(=O)[C@H](CCC(=O)O)NC(=O)[C@H](CC(C)C)NC(=O)[C@H](Cc1ccc(O)cc1)NC(=O)[C@H](CO)NC(=O)[C@H](CO)NC(=O)[C@@H](NC(=O)[C@H](CC(=O)O)NC(=O)[C@H](CS)NC(=O)[C@@H](NC(=O)[C@H](Cc1ccccc1)NC(=O)[C@@H](NC(=O)CNC(=O)[C@H](CCC(=O)O)NC(=O)C(C)(C)NC(=O)[C@@H](N)Cc1c[nH]cn1)[C@@H](C)O)[C@@H](C)O)C(C)C)C(=O)N[C@@H](C)C(=O)N[C@@H](Cc1c[nH]c2ccccc12)C(=O)N[C@@H](CC(C)C)C(=O)N[C@H](C(=O)N[C@@H](CCCNC(=N)N)C(=O)NC(C)(C)C(=O)N[C@@H](CCCNC(=N)N)C(N)=O)C(C)C) [G8 series 64] | 2 | –
His-aAib-Glu-Gly-Thr-Phe-Thr-Cys-Asp-Val-Ser-Ser-Tyr-Leu-Glu-Gly-Gln-Ala-Ala-Lys-Glu-Phe-Ile-Ala-Trp-Leu-Val-Lys-aAib-Arg-NH2 (H[Aib]EGTFTCDVSSYLEGQAAKEFIAWLVK[Aib]R-NH2; N-terminus assumed; SMILES CC[C@H](C)[C@H](NC(=O)[C@H](Cc1ccccc1)NC(=O)[C@H](CCC(=O)O)NC(=O)[C@H](CCCCN)NC(=O)[C@H](C)NC(=O)[C@H](C)NC(=O)[C@H](CCC(N)=O)NC(=O)CNC(=O)[C@H](CCC(=O)O)NC(=O)[C@H](CC(C)C)NC(=O)[C@H](Cc1ccc(O)cc1)NC(=O)[C@H](CO)NC(=O)[C@H](CO)NC(=O)[C@@H](NC(=O)[C@H](CC(=O)O)NC(=O)[C@H](CS)NC(=O)[C@@H](NC(=O)[C@H](Cc1ccccc1)NC(=O)[C@@H](NC(=O)CNC(=O)[C@H](CCC(=O)O)NC(=O)C(C)(C)NC(=O)[C@@H](N)Cc1c[nH]cn1)[C@@H](C)O)[C@@H](C)O)C(C)C)C(=O)N[C@@H](C)C(=O)N[C@@H](Cc1c[nH]c2ccccc12)C(=O)N[C@@H](CC(C)C)C(=O)N[C@H](C(=O)N[C@@H](CCCCN)C(=O)NC(C)(C)C(=O)N[C@@H](CCCNC(=N)N)C(N)=O)C(C)C) [G8 series 65] | 2 | –
His-aAib-Glu-Gly-Thr-Phe-Thr-Cys-Asp-Val-Ser-Ser-Tyr-Leu-Glu-Gly-Gln-Ala-Ala-Lys[N-ϵ-(N-α-Palmitoyl-γ-glutamyl)]-Glu-Phe-Ile-Ala-Trp-Leu-Val-Arg-Gly-Arg-Gly-NH2 (HXEGTFTCDVSSYLEGQAAXEFIAWLVRGRG; Aib; palmitoyl-gamma-Glu on Lys; C-terminal amide; Sequence is synthesized; (2)..(2) Xaa is aAib; (20)..(20) Xaa is 26Lys[N-e-(N-a-palmitoyl-L-g-glutamyl)]; (31)..(31) N-terminal) [G8 series 61] | 4 | –
His-aAib-Glu-Gly-Thr-Phe-Thr-Cys-Asp-Val-Ser-Ser-Tyr-Leu-Glu-Gly-Gln-Ala-Ala-Lys[N-ϵ-(N-α-Palmitoyl-γ-glutamyl)]-Glu-Phe-Ile-Ala-Trp-Leu-Val-Arg-Gly-Arg-Gly-OH (HXEGTFTCDVSSYLEGQAAXEFIAWLVRGRG; Aib; palmitoyl-gamma-Glu on Lys; C-terminal acid; Sequence is synthesized; (2)..(2) Xaa is aAib; (20)..(20) Xaa is 26Lys[N-e-(N-a-palmitoyl-L-g-glutamyl)]; (31)..(31) C-terminal) [G8 series 60] | 2 | –
His-aAib-Glu-Gly-Thr-Phe-Thr-Cys-Asp-Val-Ser-Ser-Tyr-Leu-Glu-Gly-Gln-Ala-Ala-Lys[N-ϵ-(N-α-oleoyl-L-γ-glutamyl)]-Glu-Phe-Ile-Ala-Trp-Leu-Val-Arg-Gly-Arg-Gly-NH2 (HXEGTFTCDVSSYLEGQAAXEFIAWLVRGRG; Aib; oleoyl-gamma-Glu on Lys; C-terminal amide; Sequence is synthesized; (2)..(2) Xaa is aAib; (20)..(20) Xaa is 26Lys[N-e-(N-a-oleoyl-L-g-glutamyl)]; (31)..(31) N-terminal) [G8 series 62] | 5 | –
His-aAib-Glu-Gly-Thr-Phe-Thr-Cys-Asp-Val-Ser-Ser-Tyr-Leu-Glu-Gly-Gln-Ala-Ala-Lys[N-ϵ-(N-α-oleoyl-L-γ-glutamyl)]-Glu-Phe-Ile-Ala-Trp-Leu-Val-Arg-Gly-Arg-Gly-OH (HXEGTFTCDVSSYLEGQAAXEFIAWLVRGRG; Aib; oleoyl-gamma-Glu on Lys; C-terminal acid; Sequence is synthesized; (2)..(2) Xaa is aAib; (20)..(20) Xaa is 26Lys[N-e-(N-a-oleoyl-L-g-glutamyl)]; (31)..(31) C-terminal) [G8 series 63] | 2 | –
His-aAib-Glu-Gly-Thr-Phe-Thr-Ser-Asp-Val-Cys-Ser-Tyr-Leu-Glu-Gly-Gln-Ala-Ala-Lys[N-ϵ-(N-α-Palmitoyl)]-Glu-Phe-Ile-Ala-Trp-Leu-Val-Arg-Gly-Arg-Gly-NH2 (HXEGTFTSDVCSYLEGQAAXEFIAWLVRGRG; αAib; palmitoyl on Lys; C-terminal amide; Sequence is synthesized; (2)..(2) Xaa is aAib; (20)..(20) Xaa is 26Lys[N-e-(N-a-palmitoyl-L-g-glutamyl)]; (31)..(31) N-terminal) [G4 series 28] | 7 | –
His-aAib-Glu-Gly-Thr-Phe-Thr-Ser-Asp-Val-Cys-Ser-Tyr-Leu-Glu-Gly-Gln-Ala-Ala-Lys[N-ϵ-(N-α-Palmitoyl-γ-glutamyl)]-Glu-Phe-Ile-Ala-Trp-Leu-Val-Arg-Gly-Arg-Gly-NH2 (HXEGTFTSDVCSYLEGQAAXEFIAWLVRGRG; αAib; palmitoyl-γ-glutamyl on Lys; C-terminal amide; Sequence is synthesized; (2)..(2) Xaa is aAib; (20)..(20) Xaa is 26Lys[N-e-(N-a-Palmitoyl-g-glutamyl)]; (31)..(31) N-terminal) [G2 series 12] | 6 | –
His-aAib-Glu-Gly-Thr-Phe-Thr-Ser-Asp-Val-Cys-Ser-Tyr-Leu-Glu-Gly-Gln-Ala-Ala-Lys[N-ϵ-(N-α-Palmitoyl-γ-glutamyl)]-Glu-Phe-Ile-Ala-Trp-Leu-Val-Arg-Gly-Arg-Gly-OH (HXEGTFTSDVCSYLEGQAAXEFIAWLVRGRG; αAib; palmitoyl-γ-glutamyl on Lys; C-terminal acid; Sequence is synthesized; (2)..(2) Xaa is aAib; (20)..(20) Xaa is 26Lys[N-e-(N-a-Palmitoyl-g-glutamyl)]; (31)..(31) C-terminal) [G2 series 11] | 4 | –
His-aAib-Glu-Gly-Thr-Phe-Thr-Ser-Asp-Val-Cys-Ser-Tyr-Leu-Glu-Gly-Gln-Ala-Ala-Lys[N-ϵ-(N-α-oleoyl)]-Glu-Phe-Ile-Ala-Trp-Leu-Val-Arg-Gly-Arg-Gly-NH2 (HXEGTFTSDVCSYLEGQAAXEFIAWLVRGRG; αAib; oleoyl on Lys; C-terminal amide; Sequence is synthesized; (2)..(2) Xaa is aAib; (20)..(20) Xaa is 26Lys[N-e-(N-a-oleoyl-L-g-glutamyl)]; (31)..(31) N-terminal) [G4 series 29] | 7 | –
His-aAib-Glu-Gly-Thr-Phe-Thr-Ser-Asp-Val-Cys-Ser-Tyr-Leu-Glu-Gly-Gln-Ala-Ala-Lys[N-ϵ-(N-α-oleoyl-L-γ-glutamyl)]-Glu-Phe-Ile-Ala-Trp-Leu-Val-Arg-Gly-Arg-Gly-NH2 (HXEGTFTSDVCSYLEGQAAXEFIAWLVRGRG; αAib; oleoyl-γ-glutamyl on Lys; C-terminal amide; Sequence is synthesized; (2)..(2) Xaa is aAib; (20)..(20) Xaa is 26Lys[N-e-(N-a-oleoyl-L-g-glutamyl)]; (31)..(31) N-terminal) [G2 series 13] | 7 | –
